How the values were obtained:
HIV protease [1] = biological target: T1, HIV protease (Human immunodeficiency virus type 1 group M subtype B, UniProt P03366); experiment: Assay for Inhibition of Synthetic Viral Protease (HPLC of peptide substrate cleavage products); format: biochemical; details: synthetic protease (residues 69-167 of the pol open reading frame), substrate Val-Ser-Gln-Asn-Tyr-Pro-Ile-Val 2 mg/mL, 50 mM Na acetate, pH 5.5, 30 C, 1 hour; read-out: ICso
T1 construct: made in house; host or cells: Escherichia coli
Procedure: Assay for Inhibition of Synthetic Viral Protease
Inhibition studies of the reaction of the synthetic protease [amino acid residues 69-167 of the pol open reading frame in Ratner, L. et al, Nature, 313, 277 (1985) and synthesized by Merrifield solid-phase synthesis] with a peptide substrate[Val-Ser-Gln-Asn-Tyr-Pro-Ile-Val, 2 mg/mL when the reaction is initiated) were in 50 mM Na acetate, pH 5.5, at 30 C for 1 hour. Various concentrations of inhibitor in 1.0 µl DMSO were added to 36 µl of assay solution and the reaction initiated by the addition of 4 ul (1.6 µg) of synthetic protease. The reaction was quenched with 160 ul of 12% acetic acid. Products of the reaction were separated by HPLC (VYDAC wide pore 5 cm C-18 reverse phase, acetonitrile gradient, 0.1% trifluoroacetic acid). The extent of inhibition of the reaction was determined from the peak heights of the products. HPLC of the products, independently synthesized, provided quantitation standards and confirmation of the product composition.

HIV protease [2] = biological target: T1, HIV protease; experiment: biochemical; details: protease expressed in Eschericia coli, substrate Val-Ser-Gln-Asn-(betanapthyl)Ala-Pro-ile-Val 0.5 mg/mL, 50 mM Na acetate, pH 5.5, 30°, 1 hour; read-out: ICso
Procedure: Assay for Inhibition of Microbial Expressed Viral Protease
Inhibition studies of the reaction of the protease expressed in Eschericia coli with a peptide substrate [Val-Ser-Gln-Asn-(betanapthyl)Ala-Pro-ile-Val, 0.5 mg/mL at the time the reaction is initiated] were in 50 mM Na acetate, pH 5.5, at 30° for 1 hour. Various concentrations of inhibitor in 1.0 ul DMSO were added to 25 ui of the peptide solution in water. The reaction is initiated by the addition of 15 ul of 0.33 nM protease (0.11 ng) in a solution of 0.133 M Na acetate pH 5.5 and 0.267% bovine serum albumin. The reaction was quenched with 160 ul of 5% phosphoric acid. Products of the reaction were separated by HPLC (VYDAC wide pore 5 cm C-18 reverse phase, acetonitrile gradient, 0.1% phosphoric acid). The extent of inhibition of the reaction was determined from the peak heights of the products.
Additional compounds were tested by the assay of Example 9.

| SMILES | IC50 (HIV protease [1]) [µM] | IC50 (HIV protease [2]) [µM] |
| --- | --- | --- |
| CC(C)C[C@H](NC(=O)[C@H](Cc1ccccc1)C[C@H](O)[C@H](CC1CCCCC1)NC(=O)OC(C)(C)C)C(=O)N[C@@H](Cc1ccccc1)C(N)=O [Compound IV, N'-(1,1-dimethylethoxycarbonyl)-5(S)-amino-4(S)-hydroxy-6-cyclohexyl-2(R)-(phenylmethyl)hexanoyl-leucyl-phenylalanylamide] | ~0.027 | – |
| CC(C)C[C@H](NC(=O)[C@H](Cc1ccccc1)C[C@H](O)[C@H](Cc1ccccc1)NC(=O)OC(C)(C)C)C(=O)N[C@@H](Cc1ccccc1)C(N)=O [Compound I, N'-(1,1-Dimethylethoxycarbonyl)-5(S)-amino-4(S)-hydroxy-6-phenyl-2(R)-(phenylmethyl)-hexanoyl-Leucyl-phenylalanyl amide] | ~0.002 | ~0.0006 |
| CC(C)C[C@H](NC(=O)[C@H](Cc1ccccc1)C[C@H](O)[C@H](Cc1ccccc1)NC(=O)OC(C)(C)C)C(=O)NCc1ccccc1 [Compound II, N-Benzyl-N'-(1,1-dimethylethexycarbonyl)-5(S)-amino-4(S)-hydroxy-6-phenyl-2(R)-(phenylmethyl)hexanoyl-leucyl-amide] | – | ~0.0014 |
| CC(C)(C)OC(=O)N[C@@H](Cc1ccccc1)[C@@H](O)C[C@@H](Cc1ccccc1)C(=O)NCc1ccccc1 [Compound III] | ~0.05 | ~0.12 |

Reference: patent publication EP0337714A2, “HIV protease inhibitors useful for the treatment of aids” (priority 1988, dated 1989)
